Experimental data as given in US20070043109A1, “Slimming cosmetic composition” (Sederma Sas, priority 2003, published 2007).

Key:
LDL receptor = test: RT-PCR quantification of LDL receptor mRNA expression in 3T3-L1 neo-adipocytes; assay type: cell-based; conditions: 24 hours
Description: (§1) To evidence regulation of transcription (control of the number of copies of the messenger RNA for the gene coding for the protein studied), it was necessary to isolate the messenger RNA (mRNA) synthesized from the cell culture. The mRNA specific for the protein of interest must be recognized in the total mRNA pool present in the cell.
(§2) The used method is RT-PCR, of amplification and quantization, conducted in real time on the latest-generation systems and which enables in-line quantitative measurement of the target mRNA.
(§3) Neo-adipocytes 3T3-L1 in the adipocytic differentiation phase (after addition of an appropriate triggering cocktail) were incubated with cafestol acetate for 24 hours.
(§4) At the end of the test, the adipocytes were lysed and the extracted mRNA transcribed to cDNA (by reverse transcriptase). The cDNA were then amplified (n copies using Taq polymerase) to obtain a detectable signal.
(§5) The amplicons (cDNA amplification products) were quantified directly, as they emerged in the RT-PCR system, then subjected to electrophoresis in order to visually illustrate the results.

VLDL receptor = test: RT-PCR quantification of VLDL receptor mRNA expression in 3T3-L1 neo-adipocytes; assay type: cell-based
Description: as §1, §2, §3, §4, §5

CC(=O)OC[C@@]1(O)C[C@@]23CC[C@@H]4c5ccoc5CC[C@@]4(C)[C@@H]2CC[C@@H]1C3 [Cafestol Acetate, cafestol acetate]
Change in LDL receptor mRNA expression relative to control (LDL receptor; equivalent to that of the positive control): −33%
mRNA expression LDL receptor, standardized on internal standard β-actin, percentage relative to the control (LDL receptor; cafestol acetate 15 ppm, 3T3-L1 neo-adipocytes in differentiation phase, mean of n = 3 tests, control = 100): 66%
mRNA expression VLDL receptor, standardized on internal standard β-actin, percentage relative to the control (VLDL receptor; cafestol acetate 15 ppm, 24 hours, 3T3-L1 neo-adipocytes in differentiation phase, mean of n = 3 tests, control = 100): 90%
Reduction of the VLDLr (mRNA expression) (VLDL receptor; in 24 hours): 10%
